Experiments:
[1] = test system: peripheral leukocytes and lymphocytes; conditions: conventional cytostatics and immunosuppressive agents; cited from earlier work
[2] = Water solubility; format: physicochemical; conditions: dihydrochloride
Text: Using a solution of HCl-gas in ethanol the compound can be converted to dihydrochloride, which is 4% water soluble.

[3] = test system: Electro-convulsion; test: Maximal electroconvulsion test; format: in vivo; conditions: Mus musculus, po; i.g., mice

For `CN(Cc1cnc2nc(N)nc(N)c2n1)c1ccc(C(=O)N[C@@H](CCC(=O)O)C(=O)O)cc1` [methotrexate], the “reattainment of normal hematological findings after discontinuation” value [1] is given as “No comparable short-term extensive reattainment of normal hematological findings”.

For `Cl.Cl.Nc1ccc(C(=O)Nc2ccccc2N)cc1` [dihydrochloride, 4-Amino-N-(2'aminophenyl)-benzamide-dihydrochloride], the solubility [2] was 40 mg/mL.

For `Cn1cnc([N+](=O)[O-])c1Sc1ncnc2nc[nH]c12` [Azathioprine], the “reattainment of normal hematological findings after discontinuation” value [1] is listed as “No comparable short-term extensive reattainment of normal hematological findings”.

For `O=P1(N(CCCl)CCCl)NCCCO1` (centres unmarked) [cyclophosphamide], the “reattainment of normal hematological findings after discontinuation” value [1] is given as “No comparable short-term extensive reattainment of normal hematological findings”.

Compound `O=C1NC(=O)C(c2ccccc2)(c2ccccc2)N1` [Diphenylhydantoin, reference compound] has an ED50 [3] of 22.5 mg/kg.
